The results in this text go back to paper PMC12305496, “Bilosomal Encapsulation of Binuclear Phosphino Ru(II)–Cu(II) Compounds Enhances Their Selectivity and Activity toward Lung and Prostate Cancers” (Journal of Medicinal Chemistry, 2025).

What all share (type): cell-based, human
One experiment deals with HEK293T cells. The experiment in a line: MTT cytotoxicity assay, HEK293T. A general note: Tetrazolium dyes change colour on reduction, which living cells bring about.
For a further experiment, the system named is MCF7 cells. The experiment is described as follows: MTT cytotoxicity assay, MCF7.
Experiment [1] relates to DU145 cells. The experiment in a line: PrestoBlue HS cell viability assay, DU145. The following applies: 24 h, dissolved in 0.9% NaCl. As for the experimental part:
(§1) Primary screening of the antiproliferative activity of the heteronuclear Ru(II)–Cu(II) complexes was performed by the commonly used MTT assay on four human cancer cell lines: MCF-7 (breast), A549 (lung adenocarcinoma), DU145 (prostate), and PANC-1 (pancreatic). In addition, normal human embryonic kidney (HEK293T) and human keratinocyte (HaCaT) cell lines were used as controls to assess the toxicity of these complexes. […] To verify whether the use of DMSO as a solvent influenced the cytotoxic activity of CDDP, we performed additional experiments (Figure S29) with CDDP (Sigma-Aldrich) dissolved in 0.9% NaCl as per the manufacturer’s recommendation. […]
(§2) Additionally, the viability of A549 and DU145 cell lines, as well as the control cell line HEK293, upon CDDP in 0.9% NaCl, was assessed using the resazurin-based PrestoBlue HS Cell Viability assay, according to the manufacturer’s protocol. […] Results were recorded using fluorescence (excitation 560 nm, emission 590 nm) and absorbance (570 nm), with fluorescence values calculated further using GraphPad Prism software, v. […]
(§3) Figure S29. […] Cells were incubated with varying concentrations of CDDP for 24 h and cell viability was measured by fluorescence intensity (excitation 560 nm, emission 590 nm). […]

In experiment [2] the test system is A549 cells. The experiment is described as follows: MTT cytotoxicity assay, A549.
Protocol: (§4) Primary screening of the antiproliferative activity of the heteronuclear Ru­(II)–Cu­(II) complexes was performed by the commonly used MTT assay on four human cancer cell lines: MCF-7 (breast), A549 (lung adenocarcinoma), DU145 (prostate), and PANC-1 (pancreatic). In addition, normal human embryonic kidney (HEK293T) and human keratinocyte (HaCaT) cell lines were used as controls to assess the toxicity of these complexes. The IC50 values (the concentration that causes 50% inhibition of cell proliferation) examined for compounds are compared to those obtained for clinically used cisplatin (CDDP) under the same experimental conditions.
(§5) The MCF7 cell line (human breast adenocarcinoma; morphology: epithelial-like, ATCC: HTB-22), A549 cell line (human lung adenocarcinoma, morphology: epithelial, ATCC: CCL-185), PANC-1 (human pancreatic/duct carcinoma, morphology: epithelial, ATCC: CRL-1469), and HaCaT (human keratinocyte, ATCC PCS-200-011) were cultured in DMEM (Corning), supplemented with 10% fetal bovine serum (FBS) and with 1% streptomycin/penicillin. The DU145 cell line (human prostate carcinoma) and HEK293T and HEK293 cell line (human embryonic kidney) were cultured in minimum essential medium (MEM, Corning) with 10% FBS. Cultures were incubated at 37 °C under a humidified atmosphere containing 5% CO2. Cells were passaged using a solution containing 0.05% trypsin and 0.5 mM EDTA. All media and other ingredients were purchased from ALAB­(Poland) or Thermo Fisher Scientific (USA).
(§6) Since most of the studied compounds are insoluble in aqueous media, they needed to be predissolved in DMSO for biological evaluation. DMSO was used in cell cultures at a concentration below 0.1% (v/v) to minimize its cytotoxicity and changes in gene expression. Cytotoxicity of the studied compounds was assessed using an MTT assay performed according to the protocols described previously. […] After that time, solutions of compounds were washed out, cells were then washed three times with PBS (1X), and a fresh medium was applied. Each compound concentration was tested in five replicates and repeated at least three times. Determined values of IC50 (concentration of a drug required to inhibit the growth of 50% of the cells) are given as mean ± SD. […] IC50 values were determined, after 72 h, from the plots of cell viability in the presence of various concentrations of each compound by matching the dose–response curves.
A further experiment concerns HaCaT cells. The experiment is described as follows: MTT cytotoxicity assay, HaCaT.
Experiment [3] relates to A549 cells. The experiment in a line: PrestoBlue HS cell viability assay, A549. The note with it: 24 h, dissolved in 0.9% NaCl. As to the method:
as §1, §2, §3

In experiment [4] the test system is DU145 cells. The experiment is described as follows: MTT cytotoxicity assay, DU145.
Protocol: as §4, §5, §6
For experiment [5], the system named is BAX and BCL-2 genes' expression. The experiment is described as follows: RT-qPCR of BAX and BCL-2 gene expression in A549 cells. The following applies: mRNA, control = 1. (In general: In qPCR the cycle at which signal appears reflects the starting amount.)
Protocol: In this study, using Reverse transcription (RT)-quantitative real-time PCR (RT-qPCR), we analyzed whether the expression ratio of Bax to Bcl-2 mRNA correlates with apoptosis or the proliferative activity of cancer cells. −
For this purpose, total RNA was isolated using the Total RNA Mini Plus kit (A&A Biotechnology, Gdansk, Poland) following the manufacturer’s instructions. A total of 1 μg of RNA was subjected to RT into complementary DNA (cDNA) using oligo­(dT)­18 and the TranScriba Kit (A&A Biotechnology, Gdansk, Poland). The qRT-PCR experiments were performed with the Sensitive RT HS-PCR Mix (A&A Biotechnology, Gdansk, Poland) on a real-time PCR thermal cycler from Bio-Rad. The TaqMan primers used in this study were obtained from Thermo Fisher Scientific/Invitrogen, specifically Bax (Hs00180269_m1), Bcl-2 (Hs04986394_s1), and GAPDH (4352932E). The relative transcript quantification was carried out using the 2^–ΔΔCt method with GAPDH as the reference gene.
A further experiment relates to HEK293 cells. The experiment is described as follows: PrestoBlue HS cell viability assay, HEK293. The following applies: 24 h, dissolved in 0.9% NaCl. As for the experimental part:
as §1, §2, §3

Another experiment deals with PANC-1 cells. The experiment in a line: MTT cytotoxicity assay, PANC-1.
Experiment [6] concerns A549 cells. The experiment in a line: Cell cycle analysis by flow cytometry. The following applies: A549, 5 μM, 24 h. As to the method: Before treatment, cells were synchronized, and the compounds were applied at various concentrations.
The A549 and DU145 cells (3 × 10^5/well) were seeded in 12-well plates and treated with various concentrations of the examined complexes and CDDP for 24 h. Synchronization of A549 and DU145 cell cultures was performed by serum starvation. Serum starvation is widely used for synchronizing donor cells by arresting them in the G 0/G 1 phase of the cell cycle. Cell cultures were seeded and incubated in growth medium with 20% FBS overnight to synchronize the cell cultures. Then, the cultures were rinsed with PBS (1×) and changed to a serum-free medium. After serum starvation for 18 h, the cells were passaged and released into the cell cycle by the addition of the serum. Then cells were treated with the examined compounds and CDDP for 24 h. For FACS analysis, cell samples were harvested with trypsinization and stained with propidium iodide (20 μg/mL). Cell cycle phase distributions were analyzed by flow cytometry (BD Bioscience). Experiments were reaped at least three times.

Where [7] appears, read: 24 h, Table 2 (bilosome comparison).
[8] abbreviates: 72 h (24 h + 48 h regeneration).
Setting [9] is: 24 h treatment, DMSO predissolved.

Where only a bound is given, the exact number is not on record here.

Protocol for HEK293T cells: as §4, §5, §6
Protocol for HaCaT cells: as §4, §5, §6
Description for MCF7 cells: The IC50 values (the concentration that causes 50% inhibition of cell proliferation) examined for compounds are compared to those obtained for clinically used cisplatin (CDDP) under the same experimental conditions.
The MCF7 cell line (human breast adenocarcinoma; morphology: epithelial-like, ATCC: HTB-22), A549 cell line (human lung adenocarcinoma, morphology: epithelial, ATCC: CCL-185), PANC-1 (human pancreatic/duct carcinoma, morphology: epithelial, ATCC: CRL-1469), and HaCaT (human keratinocyte, ATCC PCS-200-011) were cultured in DMEM (Corning), supplemented with 10% fetal bovine serum (FBS) and with 1% streptomycin/penicillin. […] Cultures were incubated at 37 °C under a humidified atmosphere containing 5% CO2. Cells were passaged using a solution containing 0.05% trypsin and 0.5 mM EDTA.
as §6
Protocol for PANC-1 cells: as §4, §5, §6

For orientation: IC50 means the midpoint of a concentration-inhibition curve. Consider `[NH2][Pt]([NH2])([Cl])[Cl]` [CDDP, cisplatin, reference compound], for which the IC50 in the experiment on HEK293T cells (setting [7]) is 21 ± 1.6 µM; in the experiment on HEK293T cells (24 h treatment) it was 21 ± 1.81 µM; with HEK293T cells (setting [8]), 10.3 ± 2.15 µM; in the experiment with MCF7 cells (24 h treatment), 51.9 ± 4.61 µM; in the experiment on MCF7 cells (setting [8]), 17.7 ± 8.6 µM; in the experiment on DU145 cells [1], 101 µM. In addition, the concentration for half-maximal inhibition (IC50) is 57 ± 1.3 µM in the experiment on A549 cells [2] (setting [7]); 57 ± 1.3 µM in the experiment with A549 cells [2] (setting [9]); 71.7 ± 3.7 µM in the experiment with A549 cells [2] (setting [8]); 43.3 ± 1.1 µM in the experiment with HaCaT cells (setting [7]); 43.3 ± 1.1 µM in the experiment with HaCaT cells (24 h treatment); 17.3 ± 3.1 µM with HaCaT cells (setting [8]). Besides, the IC50 is 51.9 µM with A549 cells [3]; 68.3 ± 1.3 µM in the experiment with DU145 cells [4] (setting [7]); 68.3 ± 1.35 µM with DU145 cells [4] (setting [9]); 65.5 ± 3.61 µM in the experiment on DU145 cells [4] (setting [8]); 87 µM with HEK293 cells; 95.6 ± 2.61 µM with PANC-1 cells (24 h treatment). Further, the IC50 in the experiment with PANC-1 cells (setting [8]) worked out at 76.6 ± 1.68 µM. Further, in experiment [5], the Bax/Bcl-2 ratio is given as 4.56.
In the case of “[Ru(η^6-p-cymene)Cl2Pcfx-Cu(phen)](NO3) [RuPCpCu]”, the IC50 in the experiment on HEK293T cells (setting [7]) worked out at 644 ± 13.1 µM; in the experiment on HEK293T cells (24 h treatment), 644 ± 13.1 µM; with HEK293T cells (setting [8]) it was 796 ± 8.9 µM; in the experiment with MCF7 cells (24 h treatment), 25 ± 0.91 µM; in the experiment on A549 cells [2] (setting [9]), 44.4 ± 0.78 µM; in the experiment on A549 cells [2] (setting [8]) it was 12.6 ± 0.83 µM. The IC50 is 935 ± 9.3 µM with HaCaT cells (setting [7]); 935 ± 9.3 µM in the experiment with HaCaT cells (24 h treatment); 834 ± 11.9 µM with HaCaT cells (setting [8]); 31 ± 1.05 µM in the experiment on DU145 cells [4] (setting [7]); 31 ± 1.05 µM in the experiment on DU145 cells [4] (setting [9]); 15 ± 0.44 µM in the experiment on DU145 cells [4] (setting [8]). Further, the IC50 with PANC-1 cells (24 h treatment) was found to be 25.9 ± 0.01 µM; in the experiment with PANC-1 cells (setting [8]), 21.7 ± 1.02 µM. Moreover, the Bax/Bcl-2 ratio in [5] worked out at 6.4. Further, in the experiment with A549 cells [6], the “effect on cell cycle” value is listed as “induced cell cycle arrest in the S phase”.
For “[Ru(η^6-p-cymene)Cl2Plfx-Cu(phen)](NO3) [RuPLmCu]”, the IC50 turned out to be 634 ± 9.1 µM in the experiment with HEK293T cells (24 h treatment); 782 ± 14.2 µM with HEK293T cells (setting [8]); 26.7 ± 2.82 µM in the experiment with MCF7 cells (24 h treatment); 42.6 ± 0.68 µM in the experiment on A549 cells [2] (setting [9]); 24.3 ± 0.91 µM in the experiment with A549 cells [2] (setting [8]); 936 ± 10.1 µM in the experiment on HaCaT cells (24 h treatment). In addition, the IC50 in the experiment on HaCaT cells (setting [8]) amounted to 833 ± 12.2 µM; in the experiment with DU145 cells [4] (setting [9]), 18.9 ± 1.21 µM; in the experiment with DU145 cells [4] (setting [8]) it was 12.7 ± 0.92 µM; in the experiment with PANC-1 cells (24 h treatment), 28.3 ± 0.71 µM; in the experiment with PANC-1 cells (setting [8]) it was 22.7 ± 1.03 µM.
“[Ru(η^6-p-cymene)Cl2Pnfx-Cu(phen)](NO3) [RuPNrCu]”: the IC50 was 677 ± 12.7 µM in the experiment with HEK293T cells (24 h treatment); 798 ± 14.8 µM in the experiment with HEK293T cells (setting [8]); 24.7 ± 1.95 µM with MCF7 cells (24 h treatment); 48.1 ± 0.06 µM in the experiment on A549 cells [2] (setting [9]); 18.8 ± 3.4 µM with A549 cells [2] (setting [8]); over 1000 µM with HaCaT cells (24 h treatment). Further, the half-inhibitory concentration (IC50) was determined as 873 ± 18.8 µM in the experiment with HaCaT cells (setting [8]); 14.5 ± 1.04 µM with DU145 cells [4] (setting [9]); 14.9 ± 0.23 µM in the experiment with DU145 cells [4] (setting [8]); 29.5 ± 0.81 µM in the experiment on PANC-1 cells (24 h treatment); 23.1 ± 1.09 µM in the experiment on PANC-1 cells (setting [8]).
On to “[Ru(η^6-p-cymene)Cl2Psfx-Cu(phen)] [RuPSfCu]”, for which the IC50 is 546 ± 11.2 µM with HEK293T cells (24 h treatment); 695 ± 14.2 µM in the experiment on HEK293T cells (setting [8]); 17.7 ± 0.93 µM in the experiment with MCF7 cells (24 h treatment); 41.1 ± 0.7 µM with A549 cells [2] (setting [9]); 25.4 ± 1.66 µM in the experiment on A549 cells [2] (setting [8]); over 1000 µM in the experiment with HaCaT cells (24 h treatment). The IC50 in the experiment with HaCaT cells (setting [8]) is 741 ± 13.2 µM; in the experiment on DU145 cells [4] (setting [9]), 16 ± 0.05 µM; with DU145 cells [4] (setting [8]), 13.5 ± 0.35 µM; in the experiment with PANC-1 cells (24 h treatment) it was 27.2 ± 0.86 µM; in the experiment with PANC-1 cells (setting [8]), 22.1 ± 0.68 µM. For the same compound, the “effect on cell cycle” value with A549 cells [6] was “induced cell cycle arrest in the S phase”.
